Converted amounts (≈) assume the structure as drawn.

Usually MIC stands for the lowest concentration that inhibits growth of the organism. The bioavailability is the share of a dose that reaches the circulation, judged against a reference dose that is usually intravenous. Broadly, the inhibition is the percentage by which the read-out fell short of the control. A lower inhibition goes with a response near the control. As usually defined, the IC50 is the concentration that gives 50% inhibition.

For one data set, the system named is Staphylococcus aureus. The data set is described as follows: Antibacterial activity against methicillin-resistant Staphylococcus aureus assessed as inhibition of bacterial growth. The format is functional.
The test system of data set [1] is Mycobacteroides abscessus. The experiment in a line: Antibacterial activity against Mycobacterium abscessus assessed as inhibition of bacterial growth. The format is functional.
The subject of data set [2] is Mycolicibacterium smegmatis. The experiment in a line: Antibacterial activity against Mycobacterium smegmatis assessed as inhibition of bacterial growth. The format is functional.
The next data set deals with Escherichia coli. The experiment in a line: Antibacterial activity against Escherichia coli assessed as inhibition of bacterial growth. The format is functional.
The nature of data set [3]: Oral bioavailability in Sprague-Dawley rat at 15 mg/kg measured for 24 hrs by LC-MS analysis. The format is ADME, organism-based. The settings on record: in vivo.
For data set [4], the target named is T1, Dihydrofolate reductase (Mycobacterium tuberculosis) (UniProt P9WNX1).
T1 sequence (whole entry): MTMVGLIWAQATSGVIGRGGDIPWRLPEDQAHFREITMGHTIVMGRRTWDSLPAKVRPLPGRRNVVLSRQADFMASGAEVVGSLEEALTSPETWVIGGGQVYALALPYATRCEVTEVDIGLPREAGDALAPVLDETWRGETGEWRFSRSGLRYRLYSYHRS
The experiment in a line: Inhibition of Mycobacterium tuberculosis DHFR at 10 uM relative to control.

Data set [5] concerns the target T1, Dihydrofolate reductase (Mycobacterium tuberculosis). The experiment in a line: Inhibition of Mycobacterium tuberculosis DHFR at 100 uM relative to control.
The test system of data set [6] is Mycobacterium tuberculosis. The data set is described as follows: Antibacterial activity against Mycobacterium tuberculosis H37Rv assessed as inhibition of bacterial growth incubated for 6 days by microplate alamar blue assay. The format is functional. The note with it: 144 h, time 6 day. Background: The colour change of resazurin is a common sign of viable cells or microbes.

Data set [7] has as its system Mycobacterium tuberculosis. The data set is described as follows: Antibacterial activity against Mycobacterium tuberculosis clinical isolate K4 assessed as inhibition of bacterial growth incubated for 6 days by microplate alamar blue assay. The format is functional. The note with it: K4, 144 h, time 6 day.
Data set [8] has as its system Mycobacterium tuberculosis. The data set is described as follows: Antibacterial activity against Mycobacterium tuberculosis clinical isolate K5 assessed as inhibition of bacterial growth incubated for 6 days by microplate alamar blue assay. The format is functional. The settings on record: K5, 144 h, time 6 day.
Data set [9] relates to Mycobacterium tuberculosis. The experiment in a line: Antibacterial activity against Mycobacterium tuberculosis clinical isolate K12 assessed as inhibition of bacterial growth incubated for 6 days by microplate alamar blue assay. The settings on record: K12, 144 h, time 6 day. The format is functional.
Data set [10] has as its system Mycobacterium tuberculosis. The experiment in a line: Antibacterial activity against Mycobacterium tuberculosis clinical isolate K16 assessed as inhibition of bacterial growth incubated for 6 days by microplate alamar blue assay. The note with it: K16, 144 h, time 6 day. The format is functional.
Data set [11] relates to Mycobacterium tuberculosis. The experiment in a line: Antitubercular activity against marker free autoluminescent Mycobacterium tuberculosis H37Ra assessed as reduction in relative light unit measured once a day for 6 days. The format is functional. The settings on record: 144 h, time 6 day.
Data set [12] is described as follows: Cytotoxicity against human HepG2 cells assessed as inhibition of cell growth incubated for 48 hrs by MTT assay. The format is toxicity, cell-based.
A short description of data set [13]: Toxicity in BALB/c mouse assessed as mouse death at 300 mg/kg, po measured after 6 days. The format is organism-based. The note with it: in vivo, 144 h, time 6 day.

On to `Cc1cc(Nc2ncc(Cl)c(Nc3cccc4ccccc34)n2)c(OC(C)C)cc1C1CCNCC1`, for which the MIC in the data set with Staphylococcus aureus is 8 µg/mL (≈ 15.9 µM); in data set [1], 16 µg/mL (≈ 31.9 µM); in data set [2], 16 µg/mL (≈ 31.9 µM); in the data set on Escherichia coli it was over 16 µg/mL. Also, in [3], the bioavailability worked out at 17.5%. Also, the inhibition came to 3.1% in data set [4] and 4.4% in [5].

Consider `NNC(=O)c1ccncc1` [ISONIAZID], for which the MIC in data set [6] is under 1 µg/mL; in data set [7], over 50 µg/mL; in data set [8] it was over 50 µg/mL; in [9], over 10 µg/mL; in [10] it was over 10 µg/mL.

In the case of `CO[C@H]1/C=C/O[C@@]2(C)Oc3c(C)c(O)c4c(O)c(c(/C=N/N5CCN(C)CC5)c(O)c4c3C2=O)NC(=O)/C(C)=C\C=C\[C@H](C)[C@H](O)[C@@H](C)[C@@H](O)[C@@H](C)[C@H](OC(C)=O)[C@@H]1C` [RIFAMPIN], the MIC in [6] was under 1 µg/mL; in data set [7] it was over 50 µg/mL; in data set [8], over 50 µg/mL; in data set [9] it was over 10 µg/mL; in data set [10] it was over 10 µg/mL.

For the molecule `Cc1cc(Nc2nc(-c3cccc(CO)c3)ncc2Cl)c(OC(C)C)cc1C1CCNCC1`, the MIC in data set [11] is 4 µg/mL (≈ 8.57 µM). Besides, the concentration for half-maximal inhibition (IC50) at 48 h in [12] came out at 4000 nM.

As for `Cc1cc(Nc2nc(-c3cccc4ccccc34)ncc2Cl)c(OC(C)C)cc1C1CCNCC1`, the MIC in data set [11] was found to be 0.5 µg/mL (≈ 1.03 µM). Moreover, the IC50 at 48 h in [12] amounted to 500 nM.

For the molecule `Cc1cc2nc(-c3ccccc3)cc(Nc3cc(C)c(C4CCNCC4)cc3OC(C)C)n2n1`, in data set [11], the MIC came to 8 µg/mL (≈ 17.6 µM). Further, the IC50 at 48 h in [12] is 4700 nM.

`Cc1cc(Nc2nc(-c3ccccc3)nc3ccsc23)c(OC(C)C)cc1C1CCNCC1`: the MIC in [11] came to 2 µg/mL (≈ 4.36 µM). The IC50 at 48 h in data set [12] was 1700 nM.

In the case of `Cc1cc(Nc2nc(-c3ccccc3)ncc2F)c(OC(C)C)cc1C1CCNCC1`, the MIC in data set [11] was found to be 0.5 µg/mL (≈ 1.19 µM). In addition, in data set [12], the half-maximal inhibitory concentration (IC50) at 48 h came to 2800 nM.

For the molecule `COc1cc(N2CCNCC2)ccc1Nc1nc(-c2ccccc2)ncc1Cl`, in data set [11], the MIC is 4 µg/mL (≈ 10.1 µM). Besides, the IC50 at 48 h in data set [12] amounted to 2700 nM.

Take `Cc1cc(C)cc(-c2ncc(Cl)c(Nc3cc(C)c(C4CCNCC4)cc3OC(C)C)n2)c1`: in [11], the MIC is 1 µg/mL (≈ 2.15 µM). Also, in data set [12], the half-maximal inhibitory concentration (IC50) at 48 h came out at 2900 nM.

Turning to `Cc1cc(Nc2nc(-c3ccc4ccccc4c3)ncc2Cl)c(OC(C)C)cc1C1CCNCC1`, the MIC in data set [11] was 0.5 µg/mL (≈ 1.03 µM). For the same molecule, in [12], the IC50 at 48 h is 500 nM.

With `Cc1cc(Nc2nc(Nc3cccc(F)c3)ncc2Cl)c(OC(C)C)cc1C1CCNCC1`, the MIC in data set [11] came to 0.5 µg/mL (≈ 1.06 µM). The IC50 at 48 h in [12] stood at 1900 nM.

Take `Cc1cc(Nc2cc(C)c(C3CCNCC3)cc2OC(C)C)nc(-c2ccccc2)n1`: the MIC in data set [11] was 4 µg/mL (≈ 9.6 µM). Moreover, in data set [12], the IC50 at 48 h is 1900 nM.

Take `Cc1cc(Nc2nc(-c3ccc(CO)cc3)ncc2Cl)c(OC(C)C)cc1C1CCNCC1`: the MIC in data set [11] is 2 µg/mL (≈ 4.28 µM). For the same molecule, the IC50 at 48 h in data set [12] came to 2000 nM.

As to `Cc1cc(Nc2cc(-c3ccccc3)nc3ccnn23)c(OC(C)C)cc1C1CCNCC1`, the MIC in [11] was 4 µg/mL (≈ 9.06 µM). Also, the IC50 at 48 h in [12] is 4100 nM.

Take `Clc1cnc(-c2ccccc2)nc1Nc1ccc(N2CCNCC2)cc1OC1CCCCC1`: the MIC in data set [11] was 2 µg/mL (≈ 4.31 µM). For the same molecule, in data set [12], the IC50 at 48 h worked out at 3100 nM.

Turning to `Cc1cc(Nc2cc(C(F)(F)F)nc(-c3ccccc3)n2)c(OC(C)C)cc1C1CCNCC1`, in data set [11], the MIC stood at 2 µg/mL (≈ 4.25 µM). In addition, the IC50 at 48 h in [12] stood at 1300 nM.

Regarding `CC(C)CCOc1cc(N2CCNCC2)ccc1Nc1nc(-c2ccccc2)ncc1Cl`, the MIC in data set [11] is 1 µg/mL (≈ 2.21 µM). In addition, in [12], the IC50 at 48 h worked out at 2100 nM.

As to `Cc1cc(Nc2nc(NC3CCCC3)ncc2Cl)c(OC(C)C)cc1C1CCNCC1`, the minimum inhibitory concentration (MIC) in [11] came to 1 µg/mL (≈ 2.25 µM). Also, the IC50 at 48 h in data set [12] is 3800 nM.

`CCCCOc1cc(N2CCNCC2)ccc1Nc1nc(-c2ccccc2)ncc1Cl`: the MIC in data set [11] was found to be 1 µg/mL (≈ 2.28 µM). Also, the IC50 at 48 h in data set [12] amounted to 2600 nM.

As to `CCOc1cc(N2CCNCC2)ccc1Nc1nc(-c2ccccc2)ncc1Cl`, the MIC in data set [11] turned out to be 2 µg/mL (≈ 4.88 µM). Besides, the IC50 at 48 h in [12] was 2500 nM.

In the case of `Cc1cc(Nc2nc(NC3CC3)ncc2Cl)c(OC(C)C)cc1C1CCNCC1`, in data set [11], the MIC turned out to be 4 µg/mL (≈ 9.62 µM). In addition, in data set [12], the IC50 at 48 h was 7600 nM.

`Cc1cc(NC(=O)Nc2ccc(F)cc2)c(OC(C)C)cc1C1CCNCC1`: the MIC in [11] was over 64 µg/mL. Besides, the IC50 at 48 h in [12] was over 20000 nM.

Take `Cc1cc(Nc2nc(Nc3ccc(F)cc3)ncc2Cl)c(OC(C)C)cc1C1CCNCC1`: the MIC in data set [11] was 0.5 µg/mL (≈ 1.06 µM); in the data set on Staphylococcus aureus, 4 µg/mL (≈ 8.51 µM); in [1] it was 8 µg/mL (≈ 17 µM); in [2], 4 µg/mL (≈ 8.51 µM); in the data set on Escherichia coli, over 16 µg/mL; in data set [6], 1 µg/mL (≈ 2.13 µM). Also, the MIC in [7] worked out at 1 µg/mL (≈ 2.13 µM); in data set [8], 2 µg/mL (≈ 4.26 µM); in [9] it was 1 µg/mL (≈ 2.13 µM); in [10], 2 µg/mL (≈ 4.26 µM). The IC50 at 48 h in data set [12] was found to be 2200 nM. The Activity result in data set [13] is “Toxic”. In addition, the inhibition in data set [4] turned out to be 2.8%; in data set [5], 3.5%.

Take `Cc1cc(Nc2nc(Nc3cccc(Cl)c3)ncc2Cl)c(OC(C)C)cc1C1CCNCC1`: the MIC in [11] worked out at 1 µg/mL (≈ 2.06 µM). In addition, the IC50 at 48 h in data set [12] was found to be 2000 nM.

For the molecule `Cc1cc(Nc2nc(-c3ccccc3)nc3ccccc23)c(OC(C)C)cc1C1CCNCC1`, the MIC in data set [11] was found to be 2 µg/mL (≈ 4.42 µM). The IC50 at 48 h in data set [12] came out at 2800 nM.

`CCC(C)Oc1cc(N2CCNCC2)ccc1Nc1nc(-c2ccccc2)ncc1Cl` (centres undefined): the MIC in [11] stood at 1 µg/mL (≈ 2.28 µM). Further, the IC50 at 48 h in data set [12] was 2300 nM.

As to `Cc1cc(Nc2nc(-c3cccc(O)c3)ncc2Cl)c(OC(C)C)cc1C1CCNCC1`, in [11], the MIC was 2 µg/mL (≈ 4.42 µM). In addition, the IC50 at 48 h in data set [12] turned out to be 1300 nM.

As to `Cc1cc(Nc2nc(-c3ccc(Cl)cc3)ncc2Cl)c(OC(C)C)cc1C1CCNCC1`, the MIC in [11] turned out to be 0.5 µg/mL (≈ 1.06 µM). The IC50 at 48 h in data set [12] was found to be 2300 nM.

Regarding `Cc1cc(Nc2nc(Nc3cccc4ccccc34)ncc2Cl)c(OC(C)C)cc1C1CCNCC1`, in data set [11], the MIC was 2 µg/mL (≈ 3.98 µM). For the same molecule, the IC50 at 48 h in data set [12] is 2200 nM.

`Cc1cc(Nc2nc(Nc3ccccc3F)ncc2Cl)c(OC(C)C)cc1C1CCNCC1`: the MIC in data set [11] stood at 1 µg/mL (≈ 2.13 µM). Also, the IC50 at 48 h in [12] turned out to be 1900 nM.

Take `Cc1cc(Nc2nc(N)ncc2Cl)c(OC(C)C)cc1C1CCNCC1`: in data set [11], the minimum inhibitory concentration (MIC) worked out at 32 µg/mL (≈ 85.1 µM). In addition, the IC50 at 48 h in data set [12] was over 10000 nM.

For the molecule `Cc1cc(Nc2nc(-c3ccc(C(C)(C)C)cc3)ncc2Cl)c(OC(C)C)cc1C1CCNCC1`, the MIC in data set [11] turned out to be 1 µg/mL (≈ 2.03 µM). In data set [12], the IC50 at 48 h amounted to 2300 nM.

Values taken from ChEMBL document CHEMBL5380793, “Structure-Activity Relationship of Novel Pyrimidine Derivatives with Potent Inhibitory Activities against Mycobacterium tuberculosis” (J Med Chem, 2023).
